Assay results reported in patent US20030225007A1, “Sulfonamide derivatives of 3-substituted imidazol[1,2-d]-1,2,4-thiadiazoles and 3-substituted-[1,2,4] thiadiazolo[4,5-a] benzimidazole as inhibitors of fibrin cross-linking and transglutaminases” (Apotex Inc., priority 2002, published 2003).
pIC50: −log10 of the molar value. Values joined by “and” are separate entries in the source; they are usually repeats but may differ in a detail not shown here. Equal entries are not always repeated. Where two headings read alike, the source gives them in different places.

Experiments:
[1] = molecular target: T1, Factor XIIIa (activated FXIII) (Homo sapiens, UniProt P00488); assay: Inactivation of purified Factor XIIIa (monodansylcadaverine incorporation into dimethylcasein, fluorescence); assay type: biochemical; conditions: for kinact/KI: read-out: Second order rate constant for inactivation; for IC50: purified activated FXIII, 50% enzyme inactivation after 5-min incubation with inhibitor at 37° C. in the absence of substrate, read-out: FXIIIa (IC50 in μM)
T1 construct: purchased Enzyme Research Laboratories, Ltd
T1 sequence (P00488 39-732 limits assumed): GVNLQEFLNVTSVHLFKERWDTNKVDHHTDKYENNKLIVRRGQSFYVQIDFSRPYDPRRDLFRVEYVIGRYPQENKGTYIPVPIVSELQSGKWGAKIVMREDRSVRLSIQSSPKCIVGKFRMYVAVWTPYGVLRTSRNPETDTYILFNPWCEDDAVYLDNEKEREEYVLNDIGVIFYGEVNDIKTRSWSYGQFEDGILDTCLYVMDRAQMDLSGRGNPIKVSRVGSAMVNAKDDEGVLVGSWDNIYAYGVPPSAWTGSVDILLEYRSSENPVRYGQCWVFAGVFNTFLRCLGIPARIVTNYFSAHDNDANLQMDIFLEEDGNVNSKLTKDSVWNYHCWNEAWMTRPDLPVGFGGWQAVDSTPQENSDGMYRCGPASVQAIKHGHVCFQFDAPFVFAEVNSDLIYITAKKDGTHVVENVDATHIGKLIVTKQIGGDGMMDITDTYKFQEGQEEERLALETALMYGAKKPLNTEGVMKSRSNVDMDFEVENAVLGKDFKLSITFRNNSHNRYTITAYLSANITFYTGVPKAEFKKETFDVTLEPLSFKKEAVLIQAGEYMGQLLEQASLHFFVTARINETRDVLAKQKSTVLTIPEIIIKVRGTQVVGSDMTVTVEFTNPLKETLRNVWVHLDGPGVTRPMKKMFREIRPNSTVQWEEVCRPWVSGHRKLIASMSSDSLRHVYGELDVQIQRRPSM
Description: FXIII (0.5 mg/mL, Enzyme Research Laboratories, Ltd.) in 50 mM Tris-HCl pH 7.5 containing 100 mM NaCl, 40 mM CaCl2, 1 mM EDTA and 0.1% poly(ethylene glycol) (app. MW=8000) was activated by incubation with 10 NIH units/mL of human thrombin (Calbiochem) at 37° C. for 20 min. Thrombin was quenched with 20 NIH units/mL of hirudin from Leech (Sigma).
Inhibitor solution in DMSO (14 μL) was added to 120 μL of 250 mM Tris-Cl pH 7.5 containing 40 mM CaCl2 and 1 mM EDTA and the solution was incubated at 37° C. for two minutes. Activated FXIII (5 μL, 0.5 mg/mL) was added and the mixture was incubated at 37° C. for 5 min.
An assay mixture composed of 50 mM Tris-Cl pH 8.0, 10 mM CaCl2, 1 mM EDTA, 0.1% poly(ethylene glycol) (app. MW=1000) and 20 μM monodansylcadaverine was prepared in a spectrofluorometric cell in a final volume of 2880 μL. Dimethylcasein (8 μL, 1% in 50 mM sodium phosphate pH 7.5) was added and the solution was incubated at 37° C. for a few minutes. To assay the residual enzyme activity, 120 μL of the solution containing the enzyme and the inhibitor was transferred to the assay mixture. The covalent incorporation of monodansylcadaverine into casein was monitored by an increase in fluorescence at λexc=360 nm and λem=500 nm as previously described (Curtis, C. G.; Lorand, L. Methods Enzymol. 1976, 45, 177-191). To determine uninhibited enzyme activity, DMSO was used in place of inhibitor solution in the above assay. IC50 were determined by plotting the percent of remaining enzyme activity against logarithm of inhibitor concentration. IC50 is defined here as an inhibitor concentration resulting in 50% enzyme inactivation after 5-min incubation of the enzyme with the inhibitor in the absence of the substrate. Second order rate constants for inactivation were determined using method described by Kitz and Wilson (Kitz, R.; Wilson, I. J. Biol. Chem. 1962, 237, 3245).

Guinea pig liver TGase = molecular target: T2, Guinea pig liver TGase (Cavia cutleri, UniProt P08587); assay: Enzyme selectivity: inactivation of tissue type transglutaminase; assay type: biochemical; conditions: 5-min incubation at 37° C. in the absence of substrate
T2 construct: Guinea pig liver TGase; from tissue; host or cells: guinea pig liver
T2 sequence (P08587 2-690): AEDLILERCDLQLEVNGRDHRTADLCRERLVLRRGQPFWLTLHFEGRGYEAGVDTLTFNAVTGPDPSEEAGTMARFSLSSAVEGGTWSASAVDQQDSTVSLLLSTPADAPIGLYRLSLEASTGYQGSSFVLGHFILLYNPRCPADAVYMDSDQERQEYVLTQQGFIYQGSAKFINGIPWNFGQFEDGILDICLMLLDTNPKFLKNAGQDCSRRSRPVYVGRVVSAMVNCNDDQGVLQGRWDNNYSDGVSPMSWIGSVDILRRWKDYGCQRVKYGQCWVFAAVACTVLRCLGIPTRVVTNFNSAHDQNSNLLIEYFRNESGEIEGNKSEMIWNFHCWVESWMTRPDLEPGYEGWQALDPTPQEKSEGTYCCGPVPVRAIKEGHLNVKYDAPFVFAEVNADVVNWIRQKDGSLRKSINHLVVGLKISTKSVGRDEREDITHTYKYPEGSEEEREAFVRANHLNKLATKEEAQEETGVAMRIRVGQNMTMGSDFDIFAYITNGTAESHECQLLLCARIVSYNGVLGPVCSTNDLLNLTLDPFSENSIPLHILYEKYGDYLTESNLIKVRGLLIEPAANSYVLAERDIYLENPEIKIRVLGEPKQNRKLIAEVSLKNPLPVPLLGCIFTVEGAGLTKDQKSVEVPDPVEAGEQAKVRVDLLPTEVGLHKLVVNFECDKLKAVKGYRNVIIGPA
Description: Enzyme selectivity . Inactivation of tissue type transglutaminase: Inhibitor solution in DMSO (5 μL) was added to 250 mM Tris-Cl pH 7.5 containing 40 mM CaCl2 and 1 mM EDTA in a final volume of 42 μL. Guinea pig liver TGase (3 μL, 2.5 mg/mL in 5 mM Tris-HCl pH 7.5, 2 mM EDTA) was added and the mixture was incubated for 5 min. at 37° C.
An assay mixture composed of 50 mM Tris-Cl, pH 8.0, 10 mM CaCl2, 1 mM EDTA, 0.1% poly(ethylene glycol) (app. MW=1000) and 20 μM monodansylcadaverine was prepared in a spectrofluorimetric cell in a final volume of 2952 μL. Dimethylcasein (8 μL, 1% in 50 mM sodium phosphate pH 7.5) was added and the mixture was incubated at 37° C. for a few minutes. To assay the residual enzyme activity, 40 μL of the solution containing the enzyme and the inhibitor was transferred to the assay mixture. The covalent incorporation of monodansylcadaverine into casein was monitored by an increase in fluorescence at λexc=360 nm and λem=500 nm, as previously described ((Curtis, C. G.; Lorand, L. Methods Enzymol. 1976, 45, 177-191). To determine uninhibited enzyme activity, DMSO was used in place of inhibitor solution in the above assay. IC50 values were determined by plotting the percent of remaining enzyme activity against logarithm of inhibitor concentration. IC50 is defined here as inhibitor concentration resulting in 50% enzyme inactivation after 5-min incubation of the enzyme with the inhibitor in the absence of the substrate. Second order rate constants for inactivation were determined using method described by Kitz and Wilson (Kitz, R.; Wilson, I. J.Biol.Chem. 1962,237, 3245).

[2] = values without asterisk, purified FXIIIa, 5-min incubation, read-out: FXIIIa IC50 determined by method in Example 16
[3] = purified Factor XIIIa, method of Kitz and Wilson
[4] = TGAse IC50, Guinea pig liver TGase

Row | Compound | IC50 [1] [µM] | also measured
1 | O=C(N1CCc2ccc(S(=O)(=O)NCCCCCCNc3nsc4nccn34)cc2C1)C(F)(F)F | – | pIC50 [1, 2]: 4.96; pIC50 (Guinea pig liver TGase; read-out: TGAse IC50, Guinea pig liver TGase): 4.77
2 | O=S(=O)(NCCCCCCNc1nsc2nccn12)c1ccccc1C(F)(F)F [2-CF3-Ph / H, N-[6-(imidazo[1,2-d][1,2,4]thiadiazol-3-ylamino)hexyl]-2-trifluoromethylbenzenesulfonamide] | – | kinact/KI [1, 3]: 12000 M⁻¹ s⁻¹; pIC50 ([1]; values marked *, read-out: FXIIIa IC50, *values calculated from second order rate constant for inactivation): 6.59 and 6.74; pIC50 (Guinea pig liver TGase; [4]): 5.12 and 5.42
3 | CN(CCCCCCNS(=O)(=O)c1ccccc1[N+](=O)[O-])c1nsc2nccn12 [2-NO2-Ph / CH3, N-{6-[imidazo[1,2-d][1,2,4]thiadiazol-3-yl(methyl)amino]hexyl}-2-nitrobenzenesulfonamide] | – | pIC50 (Guinea pig liver TGase; [4]): 5.21
4 | O=S(=O)(NCCCCCCNc1nsc2nccn12)c1ccc(-c2ccccc2)cc1 [4-Ph-Ph, N-[6-(imidazo[1,2-d][1,2,4]thiadiazol-3-ylamino)hexyl]-4-phenylbenzenesulfonamide] | 1.3 | –
5 | Cc1ccc(S(=O)(=O)N[C@@H](CCCCNc2nsc3nccn23)C(=O)N2CCN(Cc3ccccc3)CC2)cc1 [4-benzyl-{N^ε-imidazo[1,2-d][1,2,4]thiadiazol-3-yl-N^α-[(4-methylphenyl)sulfonyl]lysyl}piperazine] | 6.5 | –
6 | O=C(O)CCCCCN(CCCCCCNc1nsc2nccn12)S(=O)(=O)c1ccc(F)cc1F [5 / OH / 2-F-4-F-Ph, 6-{[(2,4-difluorophenyl)sulfonyl][6-(imidazo[1,2-d][1,2,4]thiadiazol-3-ylamino)hexyl]amino}hexanoic acid] | 6.8 | –
7 | CN(CCCCCCN(C)S(=O)(=O)c1ccccc1[N+](=O)[O-])c1nsc2nccn12 [CH3 / CH3 / 2-NO2-Ph, N-{6-[imidazo[1,2-d][1,2,4]thiadiazol-3-yl(methyl)amino]hexyl}-N-methyl-2-nitrobenzenesulfonamide] | 0.6 | –
8 | CN(CCCCCCNc1nsc2nccn12)S(=O)(=O)c1cccc2ccccc12 [CH3 / H / 1-naphthyl, N-[6-(imidazo[1,2-d][1,2,4]thiadiazol-3-ylamino)hexyl]-N-methylnaphthalene-1-sulfonamide] | 2.4 | –
9 | CN(CCCCCCNc1nsc2nccn12)S(=O)(=O)c1ccccc1[N+](=O)[O-] [CH3 / H / 2-NO2-Ph, N-[6-(Imidazo[1,2-d][1,2,4]thiadiazol-3-ylamino)hexyl]-N-methyl-2-nitro benzene sulfonamide] | 1.3 | –
10 | O=[N+]([O-])c1ccc(NCCCCCCNc2nsc3nccn23)c([N+](=O)[O-])c1 [N^1-(2,4-dinitrophenyl)-N^6-imidazo[1,2-d][1,2,4]thiadiazol-3-ylhexane-1,6-diamine] | – | kinact/KI [1, 3]: 8900 M⁻¹ s⁻¹
11 | N-imidazo[1,2-d][1,2,4]thiadiazol-3-yl-N-(6-{[(2-nitrophenyl)sulfonyl]amino}hexyl)glycinamide [H / CH2CONH2 / 2-NO2-Ph] | 0.42 | Second order rate constant for inactivation [1, 3]: 6700 M⁻¹ s⁻¹; pIC50 [1, 2]: 6.38; pIC50 (Guinea pig liver TGase; Guinea pig liver TGase, read-out: TGAse IC50): 4.49

Further lines, with some results ahead:

Row | IC50 [1] [µM] | Compound | also measured
12 | 0.88 | COC(=O)CN(CCCCCCNS(=O)(=O)c1ccccc1[N+](=O)[O-])c1nsc2nccn12 [H / CH2COOMe / 2-NO2-Ph, methyl N-imidazo[1,2-d][1,2,4]thiadiazol-3-yl-N-(6-{[(2-nitrophenyl)sulfonyl]amino}hexyl)glycinate] | –
13 | 6.7 | Cc1ccc(S(=O)(=O)N[C@@H](CCCCNc2nsc3nccn23)C(=O)NCc2ccc(F)cc2)cc1 [N-(4-fluorobenzyl)-N^ε-imidazo[1,2-d][1,2,4]thiadiazol-3-yl-N^α-[(4-methylphenyl)sulfonyl]lysinamide] | –
14 | 2.6 | O=S(=O)(NCCCCCCNc1nsc2nccn12)c1cccc2cccnc12 [Quinoline-8-, N-[6-(imidazo[1,2-d][1,2,4]thiadiazol-3-ylamino)hexyl]quinoline-8-sulfonamide] | –
15 | 9.1 | Cc1ccc(S(=O)(=O)NC(CCCCNc2nsc3nccn23)C(N)=O)cc1 (centres unmarked) [—CH(CONH2)—NH— / 4-Me-Ph] | –
16 | 6.7 | Cc1ccc(S(=O)(=O)N[C@@H](CCCCNc2nsc3nccn23)C(=O)O)cc1 [—CH(COOH)—NH— / 4-Me-Ph, N^ε-imidazo[1,2-d][1,2,4]thiadiazol-3-yl-N^α-[(4-methylphenyl)sulfonyl]lysine] | –
17 | 7 | COC(=O)[C@H](CCCCNc1nsc2nccn12)NS(=O)(=O)c1ccc(C)cc1 [—CH(COOMe)—NH— / 4-Me-Ph, methyl N^ε-imidazo[1,2-d][1,2,4]thiadiazol-3-yl-N^α-[(4-methylphenyl)sulfonyl]lysinate] | –
